Laboratory results published in PubChem BioAssay (NCI).
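Briefly, cells in 96-well plates were exposed to five compound concentrations for 48 h, and endpoints were estimated by linear interpolation. At the GI50, growth is halved. TGI is the concentration that stops growth completely.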

Key:
Assay in all cases: NCI tumour cell line growth inhibition, 48 h
ACHN renal = system: ACHN renal
HL-60(TB) leukemia = system: HL-60(TB) leukemia
MDA-MB-231 breast = system: MDA-MB-231 breast
MOLT-4 leukemia = system: MOLT-4 leukemia
OVCAR-5 ovarian = system: OVCAR-5 ovarian
PC-3 prostate = system: PC-3 prostate
RPMI-8226 leukemia = system: RPMI-8226 leukemia
HOP-92 NSCLC = system: HOP-92 NSCLC
MDA-MB-435 = system: MDA-MB-435
RXF 393 renal = system: RXF 393 renal
SF-539 CNS = system: SF-539 CNS
DMS 273 small cell lung = system: DMS 273 small cell lung
SNB-78 CNS = system: SNB-78 CNS

| Structure (SMILES) | TGI (ACHN renal) | TGI (HL-60(TB) leukemia) | TGI (MDA-MB-231 breast) | TGI (MOLT-4 leukemia) | TGI (OVCAR-5 ovarian) | TGI (PC-3 prostate) | TGI (RPMI-8226 leukemia) | TGI (HOP-92 NSCLC) | TGI (MDA-MB-435) | GI50 (HOP-92 NSCLC) | GI50 (MDA-MB-435) | GI50 (MOLT-4 leukemia) | GI50 (RXF 393 renal) | TGI (RXF 393 renal) | GI50 (SF-539 CNS) | TGI (SF-539 CNS) | GI50 (DMS 273 small cell lung) | TGI (DMS 273 small cell lung) | GI50 (SNB-78 CNS) | TGI (SNB-78 CNS) |
| --- | --- | --- | --- | --- | --- | --- | --- | --- | --- | --- | --- | --- | --- | --- | --- | --- | --- | --- | --- | --- |
| CC(=O)OC(OC(C)=O)n1cc(C=O)c2ccccc21 | > 100 µM | > 100 µM | > 100 µM | > 100 µM | > 100 µM | > 100 µM | > 100 µM |  |  |  |  |  |  |  |  |  |  |  |  |  |
| COP(=O)(OC)C(Cc1c[nH]c2ccccc12)NC(=O)OCc1ccccc1 (stereo not drawn) | > 100 µM | > 100 µM | > 100 µM |  | > 100 µM | > 100 µM | > 100 µM | > 100 µM | > 100 µM |  |  |  |  |  |  |  |  |  |  |  |
| O=C(NC1CCN(Cc2ccccc2)CC1)c1cc2nc(-c3ccc(Cl)s3)cc(C(F)(F)F)n2n1 |  |  |  | > 100 µM |  |  |  | > 100 µM | > 100 µM | 15.4 µM | > 100 µM | > 100 µM | 3.23 µM | > 100 µM | > 100 µM | > 100 µM |  |  |  |  |
| N#C[S-].[Nd+3].c1ccc(-c2ccccn2)nc1.c1ccc(-c2ccccn2)nc1.c1ccc(-c2ccccn2)nc1 |  |  |  |  |  |  |  |  |  |  |  |  | 3.89 µM | 24.8 µM | 3.78 µM | > 100 µM | 3.23 µM | 19.5 µM | 94.2 µM | > 100 µM |
